Tests used:
Settings in all cases: averaged IC50
[1] = target: His-tagged recombinant human MER cytoplasmic domain (Homo sapiens (Human), UniProt Q12866); assay: MER Enzyme Assay (LanthaScreen Eu Kinase Binding, TR-FRET)
Procedure, shortened: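 LanthaScreen Eu kinase binding (tracer displacement) assay with His-tagged human MER cytoplasmic domain, 60 min incubation at 22 °C. TR-FRET dual-wavelength emission ratio converted to percent of control; IC50 is where the 4-parameter logistic fit crosses 50 POC.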

[2] = target: His-tagged recombinant human AXL cytoplasmic domain (Homo sapiens (Human), UniProt P30530); assay: AXL Enzyme Assay (LanthaScreen Eu Kinase Binding, TR-FRET)
Sequence of His-tagged recombinant human AXL cytoplasmic domain (P30530 473-894): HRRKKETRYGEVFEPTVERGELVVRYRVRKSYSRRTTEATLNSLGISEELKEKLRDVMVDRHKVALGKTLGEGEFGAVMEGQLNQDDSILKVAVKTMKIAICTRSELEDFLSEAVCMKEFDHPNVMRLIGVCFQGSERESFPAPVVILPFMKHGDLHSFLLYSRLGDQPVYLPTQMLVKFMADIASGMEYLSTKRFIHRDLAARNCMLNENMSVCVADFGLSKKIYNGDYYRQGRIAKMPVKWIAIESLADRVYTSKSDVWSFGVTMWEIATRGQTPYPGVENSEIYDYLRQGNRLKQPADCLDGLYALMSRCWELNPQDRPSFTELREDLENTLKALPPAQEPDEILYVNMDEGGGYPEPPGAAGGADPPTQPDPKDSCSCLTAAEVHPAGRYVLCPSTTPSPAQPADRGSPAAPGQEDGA
Procedure, shortened: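 LanthaScreen Eu kinase binding format, incubated 60 min at 22 °C and read by TR-FRET dual-wavelength emission ratio as percent of control. IC50 taken where a 4-parameter logistic fit crosses 50 POC.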

[3] = target: GST-tagged recombinant human TYRO3 kinase domain (Homo sapiens (Human), UniProt Q06418); assay: TYRO3 Enzyme Assay (LanthaScreen Eu Kinase Binding, TR-FRET)
Sequence of GST-tagged recombinant human TYRO3 kinase domain (Q06418 518-790): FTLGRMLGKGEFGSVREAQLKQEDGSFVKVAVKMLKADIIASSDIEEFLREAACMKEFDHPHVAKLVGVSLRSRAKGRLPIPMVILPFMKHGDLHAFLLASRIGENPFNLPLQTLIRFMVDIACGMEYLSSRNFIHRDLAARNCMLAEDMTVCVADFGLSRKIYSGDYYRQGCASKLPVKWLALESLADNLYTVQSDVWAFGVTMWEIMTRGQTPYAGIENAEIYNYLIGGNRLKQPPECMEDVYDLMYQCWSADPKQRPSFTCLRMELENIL
Procedure, shortened: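 LanthaScreen Eu binding (tracer displacement) format read by TR-FRET after 60 min at 22 °C. Emission ratio converted to percent of control; IC50 taken where a 4-parameter logistic fit crosses 50 POC.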

Sequence of His-tagged recombinant human MER cytoplasmic domain (Q12866 527-999): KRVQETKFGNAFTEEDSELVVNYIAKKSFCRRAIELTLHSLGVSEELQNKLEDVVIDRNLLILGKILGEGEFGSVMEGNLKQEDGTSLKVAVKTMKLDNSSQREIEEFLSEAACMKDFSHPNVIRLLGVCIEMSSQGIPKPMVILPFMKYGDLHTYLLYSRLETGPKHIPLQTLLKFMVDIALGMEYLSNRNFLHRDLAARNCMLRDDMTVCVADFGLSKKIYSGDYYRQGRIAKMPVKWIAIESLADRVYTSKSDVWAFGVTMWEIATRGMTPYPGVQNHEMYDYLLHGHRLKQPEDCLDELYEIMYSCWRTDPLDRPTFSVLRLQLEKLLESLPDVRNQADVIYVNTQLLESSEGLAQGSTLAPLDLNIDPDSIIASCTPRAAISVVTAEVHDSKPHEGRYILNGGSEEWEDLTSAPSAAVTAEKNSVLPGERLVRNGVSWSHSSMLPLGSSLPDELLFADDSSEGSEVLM

SMILES | IC50 [1] [nM] | IC50 [2] [nM] | IC50 [3] [nM]
CNc1cc2c(cn1)c(-c1cnn(C(CO)CO)c1)nn2[C@H]1CC[C@@H](Oc2ccccc2F)CC1 [Example 408, 2-(4-(1-((1s,4s)-4-(2-fluorophenoxy)cyclohexyl)-6-(methylamino)-1H-pyrazolo[4,3-c]pyridin-3-yl)-1H-pyrazol-1-yl)propane-1,3-diol] | < 10 | < 10 | 10 to 100
CNc1cc2c(cn1)c(-c1cnn(C[C@@H](N)CO)c1)nn2[C@H]1CC[C@@H](Oc2ccccc2F)CC1 [Example 432, (R)-2-amino-3-(4-(1-((1s,4S)-4-(2-fluorophenoxy)cyclohexyl)-6-(methylamino)-1H-pyrazolo[4,3-c]pyridin-3-yl)-1H-pyrazol-1-yl)propan-1-ol] | < 10 | < 10 | < 10
CNc1cc2c(cn1)c(-c1cnn(C(CO)CO)c1)nn2[C@H]1CC[C@@H](Oc2cccc(F)c2)CC1 [Example 409, 2-(4-(1-((1s,4s)-4-(3-fluorophenoxy)cyclohexyl)-6-(methylamino)-1H-pyrazolo[4,3-c]pyridin-3-yl)-1H-pyrazol-1-yl)propane-1,3-diol] | < 10 | < 10 | 10 to 100
CCNc1cc2c(cn1)c(-c1cnn(C)c1)nn2[C@H]1CC[C@@H](Oc2nccnc2CC)CC1 [Example 190, N-ethyl-1-((1s,4s)-4-((3-ethylpyrazin-2-yl)oxy)cyclohexyl)-3-(1-methyl-1H-pyrazol-4-yl)-1H-pyrazolo[4,3-c]pyridin-6-amine] | < 10 | < 10 | 10 to 100
CCNc1cc2c(cn1)c(-c1cnn(CC(CO)CO)c1)nn2[C@H]1CC[C@@H](Oc2cccnc2C(F)(F)F)CC1 [Example 205, 2-((4-(6-(ethylamino)-1-((1s,4s)-4-((2-(trifluoromethyl)pyridin-3-yl)oxy)cyclohexyl)-1H-pyrazolo[4,3-c]pyridin-3-yl)-1H-pyrazol-1-yl)methyl)propane-1,3-diol] | < 10 | < 10 | < 10
CCNc1cc2c(cn1)c(-c1cnn(C[C@@H](O)CO)c1)nn2[C@H]1CC[C@@H](Oc2ccc(F)cc2F)CC1 [Example 423, (R)-3-(4-(1-((1s,4S)-4-(2,4-difluorophenoxy)cyclohexyl)-6-(ethylamino)-1H-pyrazolo[4,3-c]pyridin-3-yl)-1H-pyrazol-1-yl)propane-1,2-diol] | < 10 | < 10 | 10 to 100
CNc1cc2c(cn1)c(-c1cnn(C)c1)nn2[C@H]1CC[C@@H](Oc2cccnc2C(F)(F)F)CC1 [Example 137, N-methyl-3-(1-methyl-1H-pyrazol-4-yl)-1-((1s,4s)-4-((2-(trifluoromethyl)pyridin-3-yl)oxy)cyclohexyl)-1H-pyrazolo[4,3-c]pyridin-6-amine] | < 10 | < 10 | < 10
CCNc1cc2c(cn1)c(N1CCOCC1)nn2[C@H]1CC[C@@H](Oc2nccc(C(F)(F)F)c2F)CC1 [Example 330, N-ethyl-1-((1s,4s)-4-((3-fluoro-4-(trifluoromethyl)pyridin-2-yl)oxy)cyclohexyl)-3-morpholino-1H-pyrazolo[4,3-c]pyridin-6-amine] | < 10 | < 10 | 10 to 100
CCNc1cc2c(cn1)c(-c1cnn(C[C@H](O)CO)c1)nn2[C@H]1CC[C@@H](Oc2ccc(F)cc2F)CC1 [Example 444, (S)-3-(4-(1-((1s,4R)-4-(2,4-difluorophenoxy)cyclohexyl)-6-(ethylamino)-1H-pyrazolo[4,3-c]pyridin-3-yl)-1H-pyrazol-1-yl)propane-1,2-diol] | < 10 | < 10 | 10 to 100
CCNc1cc2c(cn1)c(-c1cnn(C[C@@H](O)CO)c1)nn2[C@H]1CC[C@@H](Oc2ccc(F)cc2Cl)CC1 [Example 436, (R)-3-(4-(1-((1s,4S)-4-(2-chloro-4-fluorophenoxy)cyclohexyl)-6-(ethylamino)-1H-pyrazolo[4,3-c]pyridin-3-yl)-1H-pyrazol-1-yl)propane-1,2-diol] | < 10 | < 10 | 10 to 100
CNc1cc2c(cn1)c(-c1ccc(S(C)(=O)=O)cc1)nn2[C@H]1CC[C@@H](Oc2cn(C)nc2C(F)(F)F)CC1 [Example 284, N-methyl-1-((1s,4s)-4-((1-methyl-3-(trifluoromethyl)-1H-pyrazol-4-yl)oxy)cyclohexyl)-3-(4-(methylsulfonyl)phenyl)-1H-pyrazolo[4,3-c]pyridin-6-amine] | < 10 | < 10 | < 10
CCNc1cc2c(cn1)c(-c1cnn([C@H]3CC[C@H](O)CC3)c1)nn2[C@H]1CC[C@@H](Oc2nccc(C(F)(F)F)c2F)CC1 [Example 272, (1R,4r)-4-(4-(6-(ethylamino)-1-((1s,4S)-4-((3-fluoro-4-(trifluoromethyl)pyridin-2-yl)oxy)cyclohexyl)-1H-pyrazolo[4,3-c]pyridin-3-yl)-1H-pyrazol-1-yl)cyclohexan-1-ol] | < 10 | < 10 | 10 to 100
CNc1cc2c(cn1)c(-c1ccn(C)c(=O)c1)nn2[C@H]1CC[C@@H](Oc2cccnc2C(F)(F)F)CC1 [Example 216, 1-methyl-4-(6-(methylamino)-1-((1s,4s)-4-((2-(trifluoromethyl)pyridin-3-yl)oxy)cyclohexyl)-1H-pyrazolo[4,3-c]pyridin-3-yl)pyridin-2(1H)-one] | < 10 | < 10 | < 10
CCNc1cc2c(cn1)c(N1CCC(OC)CC1)nn2[C@H]1CC[C@@H](Oc2nccc(C(F)(F)F)c2F)CC1 [Example 333, N-ethyl-1-((1s,4s)-4((3-fluoro-4-(trifluoromethyl)pyridin-2-yl)oxy)cyclohexyl)-3-(4-methoxypiperidin-1-yl)-1H-pyrazolo[4,3-c]pyridin-6-amine] | < 10 | < 10 | < 10
CCNc1cc2c(cn1)c(-c1cnn(C)c1)nn2[C@H]1CC[C@@H](Oc2nccc(C#N)c2F)CC1 [Example 352, 2-(((1s,4s)-4-(6-(ethylamino)-3-(1-methyl-1H-pyrazol-4-yl)-1H-pyrazolo[4,3-c]pyridin-1-yl)cyclohexyl)oxy)-3-fluoroisonicotinonitrile] | < 10 | < 10 | 10 to 100
CCNc1cc2c(cn1)c(-c1cnn(C)c1)nn2[C@H]1CC[C@@H](Oc2nccc(N(C)C)c2F)CC1 [Example 349, 1-((1s,4s)-4-((4-(dimethylamino)-3-fluoropyridin-2-yl)oxy)cyclohexyl)-N-ethyl-3-(1-methyl-1H-pyrazol-4-yl)-1H-pyrazolo[4,3-c]pyridin-6-amine] | < 10 | < 10 | 100 to 1000
